From US20240116845A1, “INDENE COMPOUNDS, PHARMACEUTICAL COMPOSITIONS THEREOF, AND THEIR THERAPEUTIC APPLICATIONS” (NucMito Pharmaceuticals Co., Ltd., priority 2021, published 2024)

Experiments:
Format in all cases: cell-based
[1] = tested on: alpha-smooth muscle actin (α-SMA); assay: Inhibition of TGF-β induced expression of alpha-smooth muscle actin in CFSC cells (western blot); details: compound at 10 μM, TGF-β (10 ng/mL), 24 hours
Description: The ability of a compound to inhibit the TGF-β induced expression of alpha-smooth muscle actin (α-SMA) was evaluated in CCl4-treated fat storing (CFSC) cells. α-SMA is considered as a reliable marker of hepatic stellate cell activation and a key biomarker for liver fibrosis.
CFSC cells maintained in a DMEM medium supplemented with 10% fetal bovine serum were seeded to 12-well culture dishes and grown to a confluence of 60-70% the next day. Culture was changed to a serum-free DMEM medium and the cells were treated with the compound at 10 μM in the presence of TGF-β (10 ng/mL). The cells were incubated for another 24 hours. All culture was maintained at 37° C. in 5% carbon dioxide.
An NP-40 lysate solution (50 mM Tris, pH 7.4, 150 mM NaCl, 1% NP-40) with EDTA free cocktail added was used to lyse the cells on ice for 30 min. The lysate was collected and centrifuged at 4° C. for 10 min at 12,000 rpm. The pellet was discarded and the supernatant was transferred to a new tube. The cell lysate was loaded with 5× loading buffer and boiled for 10 min, resolved by 10% SDS-polyacrylamide gel electrophoresis (SDS-PAGE), and transferred to a PVDF membrane. The membrane was blocked with 5% skim milk in Tris-buffered saline and TWEEN® 20 (TBST; 10 mM Tris-HCl, pH 8.0, 150 mM NaCl, 0.1% TWEEN® 20) for 1 h at room temperature and then incubated with α-SMA and β-actin antibodies overnight at 4° C. After washing twice with TBST, the membrane was probed with a […] anti-immunoglobulin (1:5000 dilution) for 1 h at room temperature. After two subsequent rinses in TBST, immunoreactive products were reacted with ECL and visualized by a UVP CHEMSTUDIO™ imaging system. The western blotting bands are quantitated using an ImageJ software. The percentage of inhibition was obtained by calculating the percentage decrease in the band intensity compared to the one treated with TGF-β only.
The results are summarized in Table 1, where A represents a value no less than 80/% inhibition, B represents a value less than 80% but no less than 50% inhibition, C represents a value less than 50% but no less than 30% inhibition, and D represents a value less than 30% inhibition with a compound at 10 μM.

[2] = tested on: A549 (lung adenocarcinoma); assay: Antiproliferative activity, CCK-8 cell viability; details: Homo sapiens, 72 h, read-out: Inhibition of Cancerous Cells, A549
Description: (§1) The antiproliferative activity of a compound was determined in the following cell lines: MDA-MB-231 (breast cancer), HepG2 (liver cancer), SW480 (colon cancer), B16F10 (malignant melanoma), A431 (epidermoid carcinoma), A549 (lung adenocarcinoma), and HeLa (cervical cancer). MDA-MB-231, HepG2, SW480, B16F10, and A431 cells were cultured in Dulbecco's modified Eagle's medium (DMEM) containing 10% fetal bovine serum (FBS). HeLa cells were cultured in MEM/EBSS (MEM) containing 10% FBS. A549 cells were maintained in Kaighn's modification of Ham's F-12 medium containing 10% FBS. The Cell Counting Kit-8 (CCK-8) assay was used to determine the cell viability of cells following treatment with the compound.
(§2) Briefly, cells were seeded in a 96-well plate at a density of 2,000-5,000 cells/well. Following attachment, the cells were treated with the compound in media at a compound concentration of 3.3 μM, 10 μM, or 30 μM, or DMSO as a control. After the cells were incubated at 37° C. for 72 h, the CCK-8 solution (10 μL) was added to each well. After incubation at 37° C. for 4 h, the absorbance value of each well was determined using a multi-well plate reader at 450 nm. The percentage of cell viability was determined with respect to the DMSO-treated cells. The results were summarized in Table 2-4 below, wherein A represents no less than 50% inhibition of cell growth; B represents less than 50% but no less than 30% inhibition of cell growth; C represents less than 30% inhibition of cell growth.

[3] = tested on: B16F10 (malignant melanoma); assay: Antiproliferative activity, CCK-8 cell viability; details: Mus musculus, B16-F10, 72 h, read-out: Inhibition of Cancerous Cells, B16F10
Description: as §1, §2

[4] = tested on: HepG2 (liver cancer); assay: Antiproliferative activity, CCK-8 cell viability; details: Homo sapiens, 72 h, read-out: Inhibition of Cancerous Cells, HepG2
Description: as §1, §2

[5] = tested on: MDA-MB-231 (breast cancer); assay: Antiproliferative activity, CCK-8 cell viability; details: Homo sapiens, 72 h, read-out: Inhibition of Cancerous Cells, MDA-MB-231
Description: as §1, §2

[6] = tested on: SW480 (colon cancer); assay: Antiproliferative activity, CCK-8 cell viability; details: Homo sapiens, 72 h, read-out: Inhibition of Cancerous Cells, SW480
Description: as §1, §2

[7] = tested on: HeLa (cervical cancer); assay: Antiproliferative activity, CCK-8 cell viability; details: Homo sapiens, 72 h, read-out: Inhibition of Cancerous Cells, HELA
Description: as §1, §2

[8] = compound concentration of 3.3 μM
[9] = compound concentration of 10 μM
[10] = compound concentration of 30 μM

CC1=C(CC(=O)O)c2cc(F)ccc2/C1=C\c1cccc(Oc2ccccc2)c1 [Compound D18, (Z)-2-(5-Fluoro-2-methyl-1-(3-phenoxybenzylidene)-1H-inden-3-yl)acetic acid]
inhibition at 10 µM [1]: ≥ 80%

CC1=C(CC(=O)NO)c2cc(F)ccc2/C1=C/c1ccc(C(C)(C)C)cc1 [Compound E6, (E)-2-(1-(4-(Tert-butyl)benzylidene)-5-fluoro-2-methyl-1H-inden-3-yl)-N-hydroxyacetamide]
inhibition at 10 µM [1]: 50 to 80%

O=C(O)CC1=C/C(=C/c2ccc(Oc3ccc(F)cc3)cc2)c2ccccc21 [Compound D32, 2-[(1Z)-1-{[4-(4-Fluorophenoxy)phenyl]methylidene}-1H-inden-3-yl]acetic acid]
inhibition at 3.3 µM [2, 8]: < 30%
inhibition at 10 µM [2, 9]: < 30%
inhibition at 30 µM [2, 10]: 30 to 50%
inhibition at 3.3 µM [3, 8]: < 30%
inhibition at 10 µM [3, 9]: 30 to 50%
inhibition at 30 µM [3, 10]: ≥ 50%
inhibition at 3.3 µM [4, 8]: ≥ 50%
inhibition at 10 µM [4, 9]: ≥ 50%
inhibition at 30 µM [4, 10]: ≥ 50%
inhibition at 3.3 µM [5, 8]: < 30%
inhibition at 10 µM [5, 9]: < 30%
inhibition at 30 µM [5, 10]: 30 to 50%
inhibition at 3.3 µM [6, 8]: < 30%
inhibition at 10 µM [6, 9]: < 30%
inhibition at 30 µM [6, 10]: < 30%
inhibition at 3.3 µM [7, 8]: 30 to 50%
inhibition at 10 µM [7, 9]: 30 to 50%
inhibition at 30 µM [7, 10]: ≥ 50%

CC1=C(CC(=O)O)c2cc(C(C)(C)C)ccc2/C1=C\c1ccc(Oc2ccc(F)cc2)cc1 [Compound D17, 2-[(1Z)-5-Tert-butyl-2-methyl-1-({4-[4-fluorophenoxy]phenyl}methylidene)-1H-inden-3-yl]acetic acid]
inhibition at 10 µM [1]: ≥ 80%

CC1=C(CC(=O)O)c2cc(F)ccc2/C1=C\c1ccc(C2=CCCC2)cc1 [Compound D39, (Z)-2-(1-(4-(Cyclopent-1-en-1-yl)benzylidene)-5-fluoro-2-methyl-1H-inden-3-yl)acetic acid]
inhibition at 10 µM [1]: 50 to 80%

CON(C)C(=O)CC1=C(C)/C(=C/c2ccc(C(C)(C)C)cc2)c2ccc(F)cc21 [Compound B4, (Z)-2-(1-(4-(Tert-butyl)benzylidene)-5-fluoro-2-methyl-1H-inden-3-yl)-N-methoxy-N-methylacetamide]
inhibition at 10 µM [1]: ≥ 80%

CC1=C(CC(=O)O)c2cc(F)ccc2/C1=C\c1ccc(OCc2ccccc2)cc1 [Compound A2, 2-[(1Z)-5-Fluoro-1-(4-(benzyloxy)benzylidene)-2-methyl-1H-inden-3-yl]-acetic acid]
inhibition at 10 µM [1]: ≥ 80%

CC1=C(CC(=O)NO)c2cc(F)ccc2/C1=C\c1ccnc2ccccc12 [Compound C6, (Z)-2-(5-Fluoro-2-methyl-1-(quinolin-4-ylmethylene)-1H-inden-3-yl)-N-hydroxyacetamide]
inhibition at 10 µM [1]: ≥ 80%

CC1=C(CC(=O)NO)c2cc(F)ccc2/C1=C\c1ccc(C)c2ccccc12 [Compound C2, (Z)-2-(5-Fluoro-2-methyl-1-((4-methylnaphthalen-1-yl)methylene)-1H-inden-3-yl)-N-hydroxyacetamide]
inhibition at 10 µM [1]: ≥ 80%

CC1=C(CC(=O)O)c2cc(F)ccc2/C1=C/c1ccc(Oc2ccc(F)cc2)cc1 [Compound E2, 2-[(1E)-5-Fluoro-2-methyl-1-({4-[4-fluorophenoxy]phenyl}methylidene)-1H-inden-3-yl]acetic acid]
inhibition at 10 µM [1]: ≥ 80%

CC1=C(CC(=O)O)c2cc(F)ccc2/C1=C\c1ccc(Oc2cccc([N+](=O)[O-])c2)cc1 [Compound D6, 2-[(1Z)-5-Fluoro-2-methyl-1-({4-[3-nitrophenoxy]phenyl}methylidene)-1H-inden-3-yl]acetic acid]
inhibition at 10 µM [1]: < 30%

CC1=C(CC(=O)O)c2cc(F)ccc2/C1=C\c1ccc(COc2ccc(F)cc2)cc1C(F)(F)F [Compound A14, 2-[(1Z)-5-Fluoro-1-({4-[(4-fluorophenoxy)methyl]-2-(trifluoromethyl)phenyl}-methylidene)-2-methyl-1H-inden-3-yl]acetic acid]
inhibition at 10 µM [1]: ≥ 80%

CC1=C(CC(=O)NO)c2cc(F)ccc2/C1=C\c1ccc(Oc2ccc(C(C)C)cc2)cc1 [Compound D1, 2-[(1Z)-5-Fluoro-2-methyl-1-({4-[4-(propan-2-yl)phenoxy]phenyl}methylidene)-1H-inden-3-yl]-N-hydroxyacetamide]
inhibition at 10 µM [1]: ≥ 80%

COc1ccc2c(c1)C(CC(=O)O)=C(C)/C2=C/c1ccc(Oc2ccccc2)cc1 [Compound D11, 2-[(1Z)-5-Methoxy-2-methyl-1-[(4-phenoxyphenyl)methylidene]-1H-inden-3-yl]acetic acid]
inhibition at 10 µM [1]: ≥ 80%

CC1=C(CC(=O)O)c2cc(F)ccc2/C1=C\c1ccc(COc2ccc(F)cc2)cc1 [Compound A1, 2-[(1Z)-5-Fluoro-1-(4-((4-fluorophenoxy)methyl)benzylidene)-2-methyl-1H-inden-3-yl]-acetic acid]
inhibition at 10 µM [1]: ≥ 80%

CC1=C(CC(=O)O)c2cc(F)ccc2/C1=C\c1ccnc2ccccc12 [Compound C5, (Z)-2-(5-Fluoro-2-methyl-1-(quinolin-4-ylmethylene)-1H-inden-3-yl)acetic acid]
inhibition at 10 µM [1]: ≥ 80%

CC1=C(CC(=O)O)c2cc(F)ccc2/C1=C\c1ccc(Oc2cccc(C(C)(C)C)c2)cc1 [Compound D3, 2-[(1Z)-5-Fluoro-2-methyl-1-({4-[3-(tert-butyl)phenoxy]phenyl}methylidene)-1H-inden-3-yl]acetic acid]
inhibition at 10 µM [1]: ≥ 80%

COc1ccc2c(c1)/C(=C\c1cccc(Oc3ccccc3)c1)C(C)=C2CC(=O)O [Compound D35, 2-[(1Z)-6-Methoxy-1-(3-(phenoxy)benzylidene)-2-methyl-1H-inden-3-yl]-acetic acid]
inhibition at 10 µM [1]: < 30%

CC1=C(CC(=O)O)c2cc(F)ccc2/C1=C/c1ccc(Oc2ccccc2)cc1 [Compound E3, 2-[(1E)-5-Fluoro-2-methyl-1-[(4-phenoxyphenyl)methylidene]-1H-inden-3-yl]acetic acid]
inhibition at 10 µM [1]: ≥ 80%
